The nature of the data set: Inhibition of human CYP1A1 expressed in HEK293 cells assessed as reduction in CYP1A1 mediated B[alpha]P-7,8- dihydrodiol induced-toxicity by measuring EC50 at 3 times of IC50 concentration by MTT assay (Rvb = 1.4 +/ 0.4 uM). A general note: Tetrazolium assays rely on reduction of a dye to a coloured formazan, in cell work by metabolically active cells.

As for `COc1c(C(=O)/C=C(\O)c2ccccc2)ccc2occc12` [Pongamol], the EC50 (as a rule, the concentration giving half of the maximal effect) was 10.2 µM.
For the compound `COc1c(-c2ccc3c(c2)OCO3)oc2c(ccc3occc32)c1=O` [Pongapin], the EC50 was 14.8 µM.
For `O=c1cc(-c2ccccc2)oc2c1ccc1occc12` [LANCEOLATIN B], the EC50 was 14.4 µM.
